Test results reported in patent US20190060428A1, “FORMULATIONS FOR NEOPLASIA VACCINES AND METHODS OF PREPARING THEREOF” (The Broad Institue Inc., priority 2015, published 2019).

What was measured:
Assay type in all cases: physicochemical
[1] = Direct dissolution of peptides in D5W without DMSO; settings: <1 mg peptide
[2] = Peptide diluent matrix (precipitation of DMSO dissolved peptides in various liquids); parameters: key to Precipitation in diluent: Liposome / Precipitation in diluent: PBS pH 7.4 / Precipitation in diluent: Water / Precipitation in diluent: 10% Sucrose / Precipitation in diluent: D5W (5% Dextrose USP Grade Inj): P = precipitation; NP = no precipitation
Experimental: Additional peptide solubility conditions were tested. Peptides CS6709, CS6712, CS6720, CS6726, and CS6783 were weighed at approximately 10 mg each. The peptides were then dissolved in approximately 200 μL USP grade DMSO to obtain a 50 mg/mL concentration for each peptide. […] The sample appeared to be cloudy. Additional 50 μL increments of DMSO were added to Peptide CS6709 up to 400 μL; for a total of 600 μL of DMSO. […] To dilute the peptides to 400 μg, a PBS pH 7.4 solution without potassium was prepared. All 5 DMSO peptide samples (50 mg/mL) were placed in a single vial for dilution to 400 μg/mL. Each DMSO peptide was added to the vial at 40 μL, except for CS6709 which was at a concentration of 16.67 mg/mL. The volume of CS6709 added to the single vial was 120 μL. The samples were diluted to 400 μg by adding 4.72 mL PBS pH 7.4. Upon addition of the PBS pH 7.4, it was observed that one or more of the peptides had precipitated out. To determine which of the peptides precipitated, Applicants followed the matrix in Table 5 below using very small amounts (10-20 μL) of the DMSO dissolved peptides and adding these peptides to the various liquids.

[3] = Solubility of peptides in DMSO (50 mg/ml)
Experimental: The only problematic peptides are very hydrophobic peptides. Additional peptide solubility conditions were tested. Peptides CS6709, CS6712, CS6720, CS6726, and CS6783 were weighed at approximately 10 mg each. The peptides were then dissolved in approximately 200 μL USP grade DMSO to obtain a 50 mg/mL concentration for each peptide. […] The sample appeared to be cloudy. Additional 50 μL increments of DMSO were added to Peptide CS6709 up to 400 μL; for a total of 600 μL of DMSO.

Dissolution directly in D5W without using DMSO [1]: could be dissolved directly in D5W
Precipitation in diluent: 10% Sucrose ([2]; 10-20 μL DMSO dissolved peptide added to 10% Sucrose): NP
Precipitation in diluent: D5W (5% Dextrose USP Grade Inj) ([2]; 10-20 μL DMSO dissolved peptide added to D5W): NP
Precipitation in diluent: Liposome ([2]; 10-20 μL DMSO dissolved peptide added to Liposome): NP
Precipitation in diluent: PBS pH 7.4 ([2]; 10-20 μL DMSO dissolved peptide added to PBS pH 7.4): NP
Precipitation in diluent: Water ([2]; 10-20 μL DMSO dissolved peptide added to Water): NP
Concentration at which peptide went into solution (clear) in DMSO [3]: 16670 µg/mL
Dissolution in DMSO at 50 mg/mL ([3]; 10.02 mg in 200 μL DMSO): did not fully dissolve
Substance: H-LTDLPGRIRVAPQQNDLDSPQQISISNAE-OH [CS6709]
